US7297700B2, “Bicycloheteroaryl compounds as P2X7 modulators and uses thereof” (Renovis, Inc., priority 2005, dated 2007)

What follows are molecules tested on IL-1β release from THP-1 cells (assay: IL-1β Release Assay (Alternate Method), THP-1 cells). Details: Homo sapiens, THP-1, read-out: IL-1β % inhibition.
Assay type: cell-based, human
Method: THP-1 cells (ATCC Cat #285-IF-100) are plated in 96 well plates at a concentration of 200,000 cells per well and allowed to differentiate in RPMI-1640 media (ATCC Cat #30-2001) containing 10% FBS, 100 IU/mL penicillin, 100 ug/mL streptomycin, 100 ng/mL LPS and 100 ng/mL IFN-γ for 16 hours. Following differentiation, the cells are treated for an additional 2 hours in RPMI-1640 media containing 100 IU/mL penicillin, 100 ug/mL streptomycin and fresh LPS at 100 ng/mL. The cells are then pretreated for 30 minutes with the compound of interest at the appropriate concentration in RPMI media containing 100 IU/mL penicillin, 100 ug/mL streptomycin. Following the pretreatment 2′, 3′-O-(4-benzoylbenzoyl)-adenosine 5′-triphosphate (Sigma Aldrich Cat#B6396) is added to a final concentration of 250 uM and the cells incubated for an additional 45 minutes. 30 uL of cell supernatant is then collected and IL-1β levels determined via ELISA (R&D systems Cat. #HSLB50) according to manufacturer's recommendations using the Tecan Safire plate reader. Background adjusted IL-1β levels of drug treated and non-treated cells are used to calculate the percent inhibition.
`O=C(Nc1ncnc2c1CCN(Cc1ccccc1)C2)C12CC3CC(CC(C3)C1)C2` [Compound 334, Adamantane-1-carboxylic acid(7-benzyl-5,6,7,8-tetrahydro-pyrido[3,4-d]pyrimidin-4-yl)-amide] was tested, and the inhibition at 0.3 µM was 50 to 75%.

Same assay, conditions: Homo sapiens; at 0.3 μM; THP-1 cells; read-out: IL-1β % inhibition
`O=C(CC12CC3CC(CC(C3)C1)C2)Nc1ccnc2c1CCN(Cc1ccccc1)C2` [Compound 342, 2-Adamantan-1-yl-N-(7-benzyl-5,6,7,8-tetrahydro-[1,7]naphthyridin-4-yl)-acetamide] showed an inhibition at 0.3 µM of 0 to 25%.

Same assay, conditions: at 0.3 μM; THP-1 cells
In the case of `O=C(CC12CC3CC(CC(C3)C1)C2)Nc1ncnc2c1CCN(C(=O)c1cccnc1Cl)C2` [Compound 222], the IL-1β % inhibition is reported as “+++ (compound exhibited 50-75% inhibition at 0.3 μM)”. For `O=C(CC12CC3CC(CC(C3)C1)C2)Nc1ncnc2c1CCN(CC1CCCC1)C2` [Compound 121], the IL-1β % inhibition was “+ (compound exhibited 0-25% inhibition at 0.3 μM)”. In the case of `CC12CC3CC(C)(C1)CC(CC(=O)Nc1ncnc4c1CCN(S(=O)(=O)c1cccc(F)c1F)C4)(C3)C2` [Compound 381], the IL-1β % inhibition is reported as “+ (compound exhibited 0-25% inhibition at 0.3 μM)”. `Cc1ccc(F)cc1S(=O)(=O)N1CCc2c(ncnc2NC(=O)CC23CC4CC(CC(C4)C2)C3)C1` [Compound 212] was tested, and the IL-1β % inhibition was “+++ (compound exhibited 50-75% inhibition at 0.3 μM)”. In the case of `O=C(CC12CC3CC(CC(C3)C1)C2)Nc1ncnc2c1CCN(C(=O)c1c(F)cccc1F)C2` [Compound 247], the IL-1β % inhibition is reported as “++++ (compound exhibited 75% or greater inhibition at 0.3 μM)”. For `CC12CC3CC(C)(C1)CC(C(C)(C)C(=O)Nc1ncnc4c1CCN(Cc1ccccc1)C4)(C3)C2` [Compound 343], the IL-1β % inhibition was “+ (compound exhibited 0-25% inhibition at 0.3 μM)”. `O=C(CC12CC3CC(CC(C3)C1)C2)Nc1ncnc2c1CCN(C(=O)C1COc3ccccc3C1)C2` (stereo not shown) [Compound 313] was tested, and the IL-1β % inhibition was “++++ (compound exhibited 75% or greater inhibition at 0.3 μM)”. `O=C(CC12CC3CC(CC(C3)C1)C2)Nc1ncnc2c1CCN(Cc1ccc(F)cc1F)C2` [Compound 47] was tested, and the IL-1β % inhibition was “++++ (compound exhibited 75% or greater inhibition at 0.3 μM)”. `O=C(CC12CC3CC(CC(C3)C1)C2)Nc1ncnc2c1CCN(S(=O)(=O)c1cccc(F)c1)C2` [Compound 215] was tested, and the IL-1β % inhibition was “+++ (compound exhibited 50-75% inhibition at 0.3 μM)”. In the case of `O=C(CC12CC3CC(CC(C3)C1)C2)Nc1ncnc2c1CCN(C(=O)Cc1ccc(F)cc1)C2` [Compound 241], the IL-1β % inhibition is reported as “+++ (compound exhibited 50-75% inhibition at 0.3 μM)”. For `O=C(CC12CC3CC(CC(C3)C1)C2)Nc1ncnc2c1CCN(C(=O)c1cccnc1Oc1ccccc1)C2` [Compound 274], the IL-1β % inhibition was “+ (compound exhibited 0-25% inhibition at 0.3 μM)”. `CC(C)Oc1ccc(CN2CCc3c(ncnc3NC(=O)CC34CC5CC(CC(C5)C3)C4)C2)cc1` [Compound 113] was tested, and the IL-1β % inhibition was “+ (compound exhibited 0-25% inhibition at 0.3 μM)”. `O=C(NCCc1ccccc1)c1ncnc2c1CCNC2` [Compound 3] was tested, and the IL-1β % inhibition was “+ (compound exhibited 0-25% inhibition at 0.3 μM)”. For `O=C(NCC1CCCCC1)c1ncnc2c1CCN(Cc1ccccc1Cl)C2` [Compound 50], the IL-1β % inhibition was “+ (compound exhibited 0-25% inhibition at 0.3 μM)”. With `Cn1ccnc1CN1CCc2c(ncnc2NC(=O)CC23CC4CC(CC(C4)C2)C3)C1` [Compound 67] the IL-1β % inhibition was “++ (compound exhibited 25-50% inhibition at 0.3 μM)”. For `CC(C)(C(=O)Nc1ncnc2c1CCN(C(=O)c1ccc(Cl)c(Cl)c1)C2)C12CC3CC(CC(C3)C1)C2` [Compound 360], the IL-1β % inhibition was “+ (compound exhibited 0-25% inhibition at 0.3 μM)”. With `O=C(CC12CC3CC(CC(C3)C1)C2)Nc1ncnc2c1CCN(C(=O)Cc1ccccc1)C2` [Compound 225] the IL-1β % inhibition was “++ (compound exhibited 25-50% inhibition at 0.3 μM)”. `CCN1CCc2c(ncnc2NC(=O)CC2CCCCC2)C1` [Compound 20] was tested, and the IL-1β % inhibition was “+ (compound exhibited 0-25% inhibition at 0.3 μM)”. In the case of `O=C(CC12CC3CC(CC(C3)C1)C2)Nc1ncnc2c1CCN(Cc1ccc(Cl)c(F)c1)C2` [Compound 329], the IL-1β % inhibition is reported as “+++ (compound exhibited 50-75% inhibition at 0.3 μM)”. With `CC(C)(C(=O)Nc1ncnc2c1CCN(Cc1ccc3cc[nH]c3c1)C2)C12CC3CC(CC(C3)C1)C2` [Compound 351] the IL-1β % inhibition was “+ (compound exhibited 0-25% inhibition at 0.3 μM)”. `O=C(CC12CC3CC(CC(C3)C1)C2)Nc1ncnc2c1CCN(Cc1ccc(Cl)cc1Cl)C2` [Compound 319] was tested, and the IL-1β % inhibition was “+ (compound exhibited 0-25% inhibition at 0.3 μM)”. In the case of `O=C(CC12CC3CC(CC(C3)C1)C2)Nc1ncnc2c1CCN(S(=O)(=O)c1ccc(F)cc1F)C2` [Compound 209], the IL-1β % inhibition is reported as “++++ (compound exhibited 75% or greater inhibition at 0.3 μM)”. For `O=C(CC12CC3CC(CC(C3)C1)C2)Nc1ncnc2c1CCN(Cc1ccnc3ccccc13)C2` [Compound 69], the IL-1β % inhibition was “+ (compound exhibited 0-25% inhibition at 0.3 μM)”. In the case of `COc1ccc(CN2CCc3c(ncnc3NC(=O)CC34CC5CC(CC(C5)C3)C4)C2)cc1` [Compound 40], the IL-1β % inhibition is reported as “+ (compound exhibited 0-25% inhibition at 0.3 μM)”. With `CC(C)(C(=O)Nc1ncnc2c1CCN(S(=O)(=O)Cc1ccc(Cl)cc1)C2)C12CC3CC(CC(C3)C1)C2` [Compound 357] the IL-1β % inhibition was “+ (compound exhibited 0-25% inhibition at 0.3 μM)”. In the case of `CS(=O)(=O)c1ccc(CN2CCc3c(ncnc3NC(=O)CC34CC5CC(CC(C5)C3)C4)C2)cc1` [Compound 15], the IL-1β % inhibition is reported as “+ (compound exhibited 0-25% inhibition at 0.3 μM)”. `O=C(CC12CC3CC(CC(C3)C1)C2)Nc1ncnc2c1CCN(Cc1ccc(Oc3ccccc3)cc1)C2` [Compound 75] was tested, and the IL-1β % inhibition was “+ (compound exhibited 0-25% inhibition at 0.3 μM)”. For `COc1ccc(S(=O)(=O)N2CCc3c(ncnc3NC(=O)CC34CC5CC(CC(C5)C3)C4)C2)cc1OC` [Compound 151], the IL-1β % inhibition was “+ (compound exhibited 0-25% inhibition at 0.3 μM)”. In the case of `O=C(NCC12CC3CC(CC(C3)C1)C2)c1ncnc2c1CCN(Cc1ccc3c(c1)OCO3)C2` [Compound 340], the IL-1β % inhibition is reported as “+++ (compound exhibited 50-75% inhibition at 0.3 μM)”. In the case of `O=C(CC12CC3CC(CC(C3)C1)C2)Nc1ncnc2c1CCN(C(=O)c1ccc3c(c1)CCO3)C2` [Compound 309], the IL-1β % inhibition is reported as “++++ (compound exhibited 75% or greater inhibition at 0.3 μM)”. For `O=C(CC12CC3CC(CC(C3)C1)C2)Nc1ncnc2c1CCN(C(=O)c1cccc(OC(F)(F)F)c1)C2` [Compound 269], the IL-1β % inhibition was “++ (compound exhibited 25-50% inhibition at 0.3 μM)”. `O=C(c1ccc(OC(F)(F)F)cc1)N1CCc2c(ncnc2NC(=O)C23CC4CC(CC(C4)C2)C3)C1` [Compound 401] was tested, and the IL-1β % inhibition was “+ (compound exhibited 0-25% inhibition at 0.3 μM)”. For `O=C(c1cccc(F)c1)N1CCc2c(ncnc2NC(=O)C23CC4CC(CC(C4)C2)C3)C1` [Compound 400], the IL-1β % inhibition was “+ (compound exhibited 0-25% inhibition at 0.3 μM)”. `CC(C)(C(=O)Nc1ncnc2c1CCN(S(=O)(=O)c1cccc(Cl)c1)C2)C12CC3CC(CC(C3)C1)C2` [Compound 354] was tested, and the IL-1β % inhibition was “+ (compound exhibited 0-25% inhibition at 0.3 μM)”. In the case of `O=C(CC12CC3CC(CC(C3)C1)C2)Nc1ncnc2c1CCN(Cc1ccc3c(c1)Cc1ccccc1-3)C2` [Compound 318], the IL-1β % inhibition is reported as “+ (compound exhibited 0-25% inhibition at 0.3 μM)”. `Cc1nc(S(=O)(=O)N2CCc3c(ncnc3NC(=O)CC34CC5CC(CC(C5)C3)C4)C2)cn1C` [Compound 164] was tested, and the IL-1β % inhibition was “+ (compound exhibited 0-25% inhibition at 0.3 μM)”.

Same assay, conditions: at 0.3 μM; THP-1 cells, BzATP-stimulated
`O=C(c1cc(F)ccc1F)N1CCc2c(ncnc2NC(=O)C23CC4CC(CC(C4)C2)C3)C1` [Compound 451] was tested, and the IL-1β % inhibition was “+ (compound exhibited 0-25% inhibition at 0.3 μM)”. For `COc1ccc(OC)c(CN2CCc3c(ncnc3NC(=O)C34CC5CC(CC(C5)C3)C4)C2)c1` [Compound 631], the IL-1β % inhibition was “+ (compound exhibited 0-25% inhibition at 0.3 μM)”. With `O=C(Nc1ncnc2c1CCN(Cc1ccc(OC(F)F)cc1)C2)C12CC3CC(CC(C3)C1)C2` [Compound 621] the IL-1β % inhibition was “+++ (compound exhibited 50-75% inhibition at 0.3 μM)”. In the case of `O=C(Nc1ncnc2c1CCN(S(=O)(=O)c1ccccc1-c1ccccc1)C2)C12CC3CC(CC(C3)C1)C2` [Compound 527], the IL-1β % inhibition is reported as “+++ (compound exhibited 50-75% inhibition at 0.3 μM)”. `O=C(Nc1ncnc2c1CCN(Cc1cccc(Oc3ccccc3)c1)C2)C12CC3CC(CC(C3)C1)C2` [Compound 568] was tested, and the IL-1β % inhibition was “+ (compound exhibited 0-25% inhibition at 0.3 μM)”. `O=C(Nc1ncnc2c1CCN(S(=O)(=O)c1ccccc1F)C2)C12CC3CC(CC(C3)C1)C2` [Compound 501] was tested, and the IL-1β % inhibition was “++ (compound exhibited 25-50% inhibition at 0.3 μM)”. `CN1CCOc2cc(S(=O)(=O)N3CCc4c(ncnc4NC(=O)C45CC6CC(CC(C6)C4)C5)C3)ccc21` [Compound 494] was tested, and the IL-1β % inhibition was “+++ (compound exhibited 50-75% inhibition at 0.3 μM)”. For `CC(C)CCN1CCc2c(ncnc2NC(=O)C23CC4CC(CC(C4)C2)C3)C1` [Compound 583], the IL-1β % inhibition was “+ (compound exhibited 0-25% inhibition at 0.3 μM)”. For `O=C(Nc1ncnc2c1CCN(S(=O)(=O)c1ccc(Oc3ccccc3)cc1)C2)C12CC3CC(CC(C3)C1)C2` [Compound 524], the IL-1β % inhibition was “++++ (compound exhibited 75% or greater inhibition at 0.3 μM)”. `O=C(Nc1ncnc2c1CCN(Cc1cccc(OC(F)(F)F)c1)C2)C12CC3CC(CC(C3)C1)C2` [Compound 632] was tested, and the IL-1β % inhibition was “++ (compound exhibited 25-50% inhibition at 0.3 μM)”. For `O=C(COc1ccccc1)N1CCc2c(ncnc2NC(=O)C23CC4CC(CC(C4)C2)C3)C1` [Compound 421], the IL-1β % inhibition was “+ (compound exhibited 0-25% inhibition at 0.3 μM)”.
